This assay deals with L1210 leukemia ip in BDF1 mice, survival T/C. Nature of the assay: NCI In Vivo Anticancer Drug Screen. Data for tumor model L1210 Leukemia (intraperitoneal) in B6D2F1 (BDF1) mice. Particulars: endpoint: mean survival time, higher = longer survival. In a few lines:
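Tumor cells were implanted, animals were treated, and survival was followed. The result divides the treated measurement by the vehicle-control measurement.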

[1] abbreviates: dose: 6.25 mg/kg/injection, schedule: Q01DX009 (ip), vehicle: saline.
Where [2] appears, read: dose: 12.5 mg/kg/injection, schedule: Q01DX009 (ip), vehicle: saline.
The mark [3] stands for this setting: dose: 25.0 mg/kg/injection, schedule: Q01DX009 (ip), vehicle: saline.
Setting [4] is: dose: 50.0 mg/kg/injection, schedule: Q01DX009 (ip), vehicle: saline.
Setting [5] is: dose: 100.0 mg/kg/injection, schedule: Q01DX009 (ip), vehicle: saline.
Where [6] appears, read: dose: 200.0 mg/kg/injection, schedule: Q01DX009 (ip), vehicle: saline.
[7] abbreviates: dose: 400.0 mg/kg/injection, schedule: Q01DX009 (ip), vehicle: saline.
[8] abbreviates: dose: 100.0 mg/kg/injection, schedule: Q01DX009 (ip), vehicle: saline with Tween-80.
Where [9] appears, read: dose: 100.0 mg/kg/injection, schedule: Q04DX002 (ip), vehicle: Klucel (hydroxypropylcellulose) (HPC).
Where [10] appears, read: dose: 100.0 mg/kg/injection, schedule: Q04DX002 (ip), vehicle: saline with Tween-80.
[11] abbreviates: dose: 200.0 mg/kg/injection, schedule: Q01DX009 (ip), vehicle: saline with Tween-80.
The mark [12] stands for this setting: dose: 200.0 mg/kg/injection, schedule: Q04DX002 (ip), vehicle: Klucel (hydroxypropylcellulose) (HPC).
[13] abbreviates: dose: 200.0 mg/kg/injection, schedule: Q04DX002 (ip), vehicle: saline with Tween-80.
[14] abbreviates: dose: 400.0 mg/kg/injection, schedule: Q04DX002 (ip), vehicle: Klucel (hydroxypropylcellulose) (HPC).
The mark [15] stands for this setting: dose: 400.0 mg/kg/injection, schedule: Q04DX002 (ip), vehicle: saline with Tween-80.

“And” between values parts separate entries of the source, which are not always exact repeats. Equal values may be shown once. Inconclusive results and toxic doses are left out.

For the molecule `O=C(Nc1ccc(C2=NCCN2)cc1)Nc1cc(C(=O)Nc2ccc(C3=NCCN3)cc2)ccc1C(=O)Nc1ccc(C2=NCCN2)cc1`, the T/C was 107 % of control (dose: 7.5 mg/kg/injection, schedule: Q01DX Z (oral), vehicle: saline); 241 % of control (dose: 15.0 mg/kg/injection, schedule: Q01DX Z (ip), vehicle: saline); 105 % of control (dose: 15.0 mg/kg/injection, schedule: Q01DX Z (oral), vehicle: saline); 103 % of control (dose: 30.0 mg/kg/injection, schedule: Q01DX Z (oral), vehicle: saline); 102 % of control (dose: 60.0 mg/kg/injection, schedule: Q01DX Z (oral), vehicle: saline); 95 % of control (dose: 62.5 mg/kg/injection, schedule: Q01DX010 (oral), vehicle: saline). In addition, the T/C is 95 % of control (dose: 75.0 mg/kg/injection, schedule: Q01DX Z (oral), vehicle: saline); 110 % of control (dose: 125.0 mg/kg/injection, schedule: Q01DX010 (oral), vehicle: saline); 108 % of control (dose: 250.0 mg/kg/injection, schedule: Q01DX010 (oral), vehicle: saline); 97 % of control (dose: 500.0 mg/kg/injection, schedule: Q01DX010 (oral), vehicle: saline).

For the molecule `OCCN1CCN(CC/C=C2\c3ccccc3Sc3ccc(Cl)cc32)CC1`, the T/C (dose: 0.39 mg/kg/injection, schedule: Q03HX024 (ip), vehicle: saline) is 100 % of control; the T/C (dose: 0.78 mg/kg/injection, schedule: Q03HX024 (ip), vehicle: saline) was 94 % of control; the T/C (dose: 1.0 mg/kg/injection, schedule: Q01DX009 (ip), vehicle: saline) is 101 % of control and 87 % of control; the T/C (dose: 1.56 mg/kg/injection, schedule: Q03HX024 (ip), vehicle: saline) is 107 % of control; the T/C (dose: 2.0 mg/kg/injection, schedule: Q01DX009 (ip), vehicle: saline) is 95 % of control and 103 % of control; the T/C (dose: 3.12 mg/kg/injection, schedule: Q01DX009 (ip), vehicle: saline) is 104 % of control. Further, the T/C (dose: 3.12 mg/kg/injection, schedule: Q03HX024 (ip), vehicle: saline) was 111 % of control; the T/C (dose: 3.12 mg/kg/injection, schedule: Q04DX003 (ip), vehicle: saline) is 106 % of control; the T/C (dose: 4.0 mg/kg/injection, schedule: Q01DX009 (ip), vehicle: saline) was 100 % of control and 106 % of control; the T/C under setting [1] is 120 % of control; the T/C (dose: 6.25 mg/kg/injection, schedule: Q04DX003 (ip), vehicle: saline) was 100 % of control and 105 % of control; the T/C (dose: 8.0 mg/kg/injection, schedule: Q01DX009 (ip), vehicle: saline) is 106 % of control and 115 % of control. For the same molecule, the T/C (dose: 9.37 mg/kg/injection, schedule: Q01DX001 (ip), vehicle: saline) was 106 % of control; the T/C under setting [2] was 120 % of control and 86 % of control; the T/C (dose: 12.5 mg/kg/injection, schedule: Q04DX003 (ip), vehicle: saline) is 108 % of control and 116 % of control; the T/C (dose: 16.0 mg/kg/injection, schedule: Q01DX009 (ip), vehicle: saline) is 115 % of control and 89 % of control; the T/C (dose: 18.75 mg/kg/injection, schedule: Q01DX001 (ip), vehicle: saline) was 100 % of control; the T/C (dose: 20.0 mg/kg/injection, schedule: Q04DX003 (ip), vehicle: saline) was 115 % of control. Further, the T/C under setting [3] is 124 % of control; the T/C (dose: 25.0 mg/kg/injection, schedule: Q04DX003 (ip), vehicle: saline) is 119 % of control; the T/C (dose: 37.5 mg/kg/injection, schedule: Q01DX001 (ip), vehicle: saline) was 105 % of control; the T/C (dose: 40.0 mg/kg/injection, schedule: Q04DX003 (ip), vehicle: saline) was 105 % of control; the T/C (dose: 75.0 mg/kg/injection, schedule: Q01DX001 (ip), vehicle: saline) was 105 % of control.

Consider `O=C(Nc1ccc(F)cc1)Oc1ccc([N+](=O)[O-])cc1`, for which the T/C under setting [3] is 106 % of control; the T/C under setting [4] is 100 % of control; the T/C under setting [5] was 97 % of control and 106 % of control; the T/C under setting [6] is 95 % of control; the T/C under setting [7] was 97 % of control.

For the molecule `CCOC(=O)/C=C(\C)C(C)(C)C(C)=O`, the T/C was 90 % of control (dose: 100.0 mg/kg/injection, schedule: Q01DX001 (ip), vehicle: saline); 101 % of control (dose: 200.0 mg/kg/injection, schedule: Q01DX001 (ip), vehicle: saline); 98 % of control (dose: 400.0 mg/kg/injection, schedule: Q01DX001 (ip), vehicle: saline).

Take `Cc1cccc(C)c1Oc1ccc([N+](=O)[O-])cc1[N+](=O)[O-]`: the T/C was 105 % of control (dose: 100.0 mg/kg/injection, schedule: Q01DX001 (ip), vehicle: Klucel (hydroxypropylcellulose) (HPC)); 112 % of control (dose: 200.0 mg/kg/injection, schedule: Q01DX001 (ip), vehicle: Klucel (hydroxypropylcellulose) (HPC)); 117 % of control (dose: 400.0 mg/kg/injection, schedule: Q01DX001 (ip), vehicle: Klucel (hydroxypropylcellulose) (HPC)).

Turning to `CC(C(=O)c1ccccc1)c1ccccc1` (centres undefined), the T/C (dose: 50.0 mg/kg/injection, schedule: Q01DX009 (ip), vehicle: saline with Tween-80) was 97 % of control; the T/C under setting [8] is 87 % of control; the T/C under setting [9] is 106 % of control; the T/C under setting [10] was 90 % of control; the T/C under setting [11] is 87 % of control; the T/C under setting [12] was 91 % of control. Besides, the T/C under setting [13] was 107 % of control, the T/C under setting [14] was 98 % of control and the T/C under setting [15] is 101 % of control.

With `COc1ccc(/C=C2\CCC3C(=O)CCCC3(C)C2=O)cc1` (centres undefined), the T/C reads like this: under setting [5], 95 % of control; (dose: 100.0 mg/kg/injection, schedule: Q04DX003 (ip), vehicle: saline) 100 % of control; under setting [6], 104 % of control; (dose: 200.0 mg/kg/injection, schedule: Q04DX003 (ip), vehicle: saline) 117 % of control; under setting [7], 101 % of control; (dose: 400.0 mg/kg/injection, schedule: Q04DX003 (ip), vehicle: saline) 104 % of control.

As to `C=CCCC[P+](c1ccccc1)(c1ccccc1)c1ccccc1`, the T/C is, setting by setting: (dose: 3.13 mg/kg/injection, schedule: Q01DX009 (ip), vehicle: saline) 95 % of control; under setting [1], 103 % of control; (dose: 12.5 mg/kg/injection, schedule: Q01DX009 (ip), vehicle: saline with Tween-80) 108 % of control; under setting [2], 100 % of control; (dose: 25.0 mg/kg/injection, schedule: Q01DX009 (ip), vehicle: saline with Tween-80) 108 % of control; under setting [4], 101 % of control.

As for `Cc1cc(C)nc(NC(=O)Nc2ccccc2)c1`, the T/C by setting is: (dose: 100.0 mg/kg/injection, schedule: Q01DX009 (ip), vehicle: Klucel (hydroxypropylcellulose) (HPC)) 93 % of control; (dose: 100.0 mg/kg/injection, schedule: Q04DX003 (ip), vehicle: Klucel (hydroxypropylcellulose) (HPC)) 94 % of control; (dose: 200.0 mg/kg/injection, schedule: Q04DX003 (ip), vehicle: Klucel (hydroxypropylcellulose) (HPC)) 92 % of control; (dose: 400.0 mg/kg/injection, schedule: Q01DX009 (ip), vehicle: Klucel (hydroxypropylcellulose) (HPC)) 100 % of control; (dose: 400.0 mg/kg/injection, schedule: Q04DX003 (ip), vehicle: Klucel (hydroxypropylcellulose) (HPC)) 89 % of control.

Regarding `O=C(NC(=S)Nc1ccc([N+](=O)[O-])cc1Br)c1ccc(Cl)cc1Cl`, the T/C is 89 % of control and 90 % of control under setting [8]; 87 % of control and 90 % of control under setting [10]; 93 % of control and 90 % of control under setting [11]; 86 % of control and 92 % of control under setting [13]; 93 % of control and 95 % of control (dose: 400.0 mg/kg/injection, schedule: Q01DX009 (ip), vehicle: saline with Tween-80); 104 % of control and 92 % of control under setting [15].

In the case of `CCOC(=O)C(C)N1C(=O)c2ccccc2C1=O` (centres undefined), the T/C by setting is: under setting [9], 100 % of control; under setting [12], 104 % of control; under setting [14], 100 % of control.

Source of the values: PubChem BioAssay AID248 (DTP/NCI, 2004).
